Where “and” joins values, the source holds several entries; their conditions need not be identical. Equal entries are not always repeated.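 Compound exposure: 48 hours, 5 concentrations, 96-well plates. GI50 marks 50% less growth. TGI is the concentration that stops growth completely.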 Where only a bound is given, the exact number is not on record here.

The TGI is the concentration at which net growth stops. Higher therefore signals less potent growth arrest. By GI50 is commonly meant the concentration at which growth is held to half of that of the control.

Holding throughout (test): DTP human tumour cell line panel, 48 h
For experiment [1], the system named is CAKI-1 renal.
Experiment [2] relates to COLO 205 colon.
The test system of experiment [3] is HOP-62 NSCLC.
Experiment [4] deals with KM12 colon.
Experiment [5] concerns MCF7 breast.
Experiment [6] concerns MOLT-4 leukemia.
In experiment [7] the test system is SK-OV-3 ovarian.
Experiment [8] has as its system T-47D breast.
The test system of experiment [9] is UO-31 renal.

For `O=C(NO)c1ccc(C(=O)NO)cc1`, the TGI in [1] was over 100 µM; in experiment [2], over 100 µM; in experiment [3] it was over 100 µM; in experiment [4], over 100 µM; in [5], over 100 µM; in [6], 92.9 µM. Moreover, the TGI in [7] is 87.2 µM; in [8], over 100 µM; in experiment [9], over 100 µM.

With `O=C(Cc1ccccc1)Oc1ccc2c(-c3ccccc3)c(C(=O)Nc3ccc(Cl)cc3)c(=O)oc2c1`, the TGI in experiment [1], in experiment [2], in experiment [3], in experiment [4], in experiment [6] and in [7] was over 100 µM throughout. Besides, the TGI in experiment [9] was over 100 µM.

`O=C1c2ccn(CCCCN3CCOCC3)c2C(=O)c2c1c(O)c1ccccc1c2O`: the GI50 in [1] is 5.94 µM; in experiment [2] it was 5.69 µM; in experiment [3], 14.7 µM; in experiment [4], 5.21 µM; in experiment [5], 6.26 µM; in experiment [7], 16.2 µM. Also, the GI50 in experiment [8] is 8.45 µM; in experiment [9], 27.5 µM. In addition, the TGI is 21 µM in experiment [1]; 34 µM in [2]; 34.5 µM in experiment [3]; 18.8 µM in [4]; 24.8 µM in experiment [5]; 55.4 µM in experiment [7]. In addition, the total growth inhibition concentration (TGI) in experiment [8] was 97.7 µM; in [9], over 100 µM.

On to `CC(NC(=O)c1ccccc1)C(=O)N(Cc1ccccc1)Cc1ccccc1` (configuration not stated), for which the TGI in experiment [1] is over 100 µM; in experiment [2] it was 40.8 µM; in experiment [3], 66.4 µM; in experiment [4], 58 µM; in experiment [6], 35.6 µM; in experiment [7], over 100 µM. Moreover, the TGI in experiment [9] was found to be 83.9 µM.

Take `O=C1CCC2(c3ccc(F)cc3)Nc3ccccc3N12` (configuration not stated): the TGI in experiment [1], in experiment [2], in experiment [3], in experiment [4], in [6] and in experiment [7] was over 100 µM throughout. Further, the TGI in [9] is over 100 µM.

Take `O=CC1=CCCC2(C1)OCCO2`: the TGI in experiment [1], in experiment [2], in experiment [3], in [4], in [7] and in experiment [9] was over 100 µM each time.

Consider `CC(=O)O[C@]1(C(C)=O)CC[C@H]2[C@@H]3C[C@H](C)C4=CC(=O)C=C[C@]4(C)[C@@]3(F)[C@@H](O)C[C@@]21C`, for which the TGI is over 100 µM in experiment [1]; over 100 µM in [2]; over 100 µM in [3]; over 100 µM in [4]; over 100 µM in experiment [6]; 51 µM in [7]. This compound displayed a TGI in experiment [9] of 98.9 µM.

Regarding `COC(=O)N1[C@H]2Cc3c(OC)c(C)c(OC)c(OC)c3[C@@H]1/C(=C\c1cc(OC)c(OC)c(C)c1OC)N(Cc1ccccc1)C2=O`, the TGI in experiment [1] is over 100 µM; in experiment [2] it was 32 µM; in [3], over 100 µM; in experiment [4], over 100 µM; in experiment [6], 75.2 µM; in experiment [7], over 100 µM. The compound also registered a TGI in experiment [9] of over 100 µM.

As for `O=[N+]([O-])c1ccccc1S(=O)c1ccccc1` (configuration not stated), the TGI in experiment [1], in [3], in experiment [4], in experiment [6], in experiment [7] and in experiment [9] was over 100 µM in each case.

In the case of `[Cu+2].[Cu+2].[O-]c1ccccc1C=Nc1ccccc1[O-].[O-]c1ccccc1C=Nc1ccccc1[O-]`, the GI50 in experiment [1] is 10.8 µM; in [2], 2.26 µM; in [3] it was 21.9 µM; in [4] it was 10 µM; in experiment [6], 2.99 µM; in [7] it was 25.5 µM. Moreover, the GI50 in [9] was 12.6 µM. Also, the TGI in experiment [1] is 22.8 µM; in experiment [2], 5.11 µM; in experiment [3], 36.6 µM; in experiment [4], 27 µM; in [6], 9.97 µM; in experiment [7], 40.4 µM. In experiment [9], the TGI came to 25.2 µM.

As for `O=C(O)CSc1n[nH]c(/C=C/c2ccccc2)n1`, the concentration for total growth inhibition (TGI) in [1], in [2], in experiment [3], in experiment [4], in [6] and in experiment [7] was over 100 µM in each case. This compound also returned a TGI in experiment [9] of over 100 µM.

Regarding `Cc1oc2ccccc2c(=O)c1Cn1nnc2ccccc21`, the TGI in experiment [2] was over 100 µM; in [3] it was over 100 µM; in [4], over 100 µM; in experiment [5] it was 49.2 µM; in experiment [6], over 100 µM; in experiment [7], over 100 µM. Further, the TGI in [8] was 44.2 µM; in experiment [9], over 100 µM.

Take `COc1ccc(CNc2cc(OC)cc(OC)c2)cc1`: in experiment [1], the GI50 is > 100 µM and 34.6 µM. Moreover, the TGI in experiment [1], in [2], in experiment [3], in experiment [4], in [6] and in [7] was over 100 µM throughout. Moreover, the TGI in experiment [9] was > 100 µM and 97.8 µM.

On to `Nc1nc2ncn(CCO)c2c(=O)[nH]1`, for which the TGI in experiment [2], in experiment [3], in experiment [6], in experiment [7] and in [9] was over 100 µM in each case.

For the compound `CCCCN(CC)C(=O)C(=O)C1C(=O)Nc2ccccc2S1=O` (configuration not stated), the total growth inhibition concentration (TGI) in experiment [1], in experiment [2], in experiment [3], in experiment [4], in experiment [6] and in experiment [7] was over 100 µM in each case. Also, the TGI in experiment [9] is over 100 µM.

For the compound `C=C1C(=O)O[C@@H]2C[C@]3(C)[C@@H](C[C@H]12)[C@](C)(O)CC[C@@H]3O`, the TGI in [1], in experiment [2], in experiment [3], in [4], in [6] and in [7] was over 100 µM each time. Further, the TGI in [9] is over 100 µM.

With `CN(C)CCC1(C2=CCCC2)CC/C(=C\c2ccc3c(c2)OCO3)C1=O` (configuration not stated), the TGI in experiment [2] turned out to be 47.7 µM; in experiment [4] it was 31.8 µM; in [6], 31.4 µM; in [9] it was 20.2 µM.

These data come from PubChem BioAssay (NCI).
